{"source": "patent US10364314B2", "about": "“Compound, resin, material for forming underlayer film for lithography, composition for forming underlayer film for lithography, underlayer film for lithography, resist pattern forming method, circuit pattern forming method, and purification method” (Mitsubishi Gas Chemical Company, Inc., priority 2015, dated 2019)"}
{"assay": "Solubility in PGME and PGMEA at 23° C.", "format": "physicochemical", "method": "The amount of each compound dissolved in 1-methoxy-2-propanol (PGME) and propylene glycol monomethyl ether acetate (PGMEA) was measured at 23° C., and the results were evaluated according to the following criteria.\nEvaluation A: 10% by mass or more\nEvaluation B: 5% by mass or more and less than 10% by mass\nEvaluation C: less than 5% by mass", "units": {"solubility in PGME and PGMEA": "% by mass"}}
{"smiles": "Oc1ccc2ccc3c(c2c1)C(c1c[nH]cn1)c1c(ccc2ccc(O)cc12)O3", "note": "[IMX-1]", "Evaluation of the solubility in PGME and PGMEA": "A (10% by mass or more)", "solubility in PGME and PGMEA": "≥ 10"}
{"smiles": "Oc1ccc2c3c(ccc2c1)Oc1ccc2cc(O)ccc2c1C3c1c[nH]cn1", "note": "[IMX-2]", "Evaluation of the solubility in PGME and PGMEA": "A (10% by mass or more)", "solubility in PGME and PGMEA": "≥ 10"}
{"smiles": "Oc1ccc(-c2ccc(O)c(C(c3c[nH]cn3)c3cc(-c4ccc(O)cc4)ccc3O)c2)cc1", "note": "[IMX-3]", "Evaluation of the solubility in PGME and PGMEA": "A (10% by mass or more)", "solubility in PGME and PGMEA": "≥ 10"}
{"smiles": "Oc1ccc2c3c(ccc2c1)Oc1ccc2cc(O)ccc2c1C3c1c[nH]c(-c2ccccc2)n1", "note": "[IMX-4]", "Evaluation of the solubility in PGME and PGMEA": "B (5% by mass or more and less than 10% by mass)", "solubility in PGME and PGMEA": "≥ 5"}
{"smiles": "CCCCc1nc(C2c3c(ccc4cc(O)ccc34)Oc3ccc4cc(O)ccc4c32)c(Cl)[nH]1", "note": "[IMX-5]", "Evaluation of the solubility in PGME and PGMEA": "A (10% by mass or more)", "solubility in PGME and PGMEA": "≥ 10"}
